1 compound from patent US8507411B2, “Neoglycorandomization and digitoxin analogs” (priority 2004, dated 2013) can be followed below.

This series can be described thus: Hydrolytic stability of the neoglycosidic linkage. It is filed as physicochemical. The note with it: neutral or basic conditions (pH 7, pH 9), 3 mM in 1:1 DMSO/buffer, one month. Here is the method: FIG. 4 is a graphic representation of the results of studies on the hydrolytic stability of neoglycoside 4α. The chemical stability of the neoglycosidic linkage was examined by monitoring the hydrolytic degradation of neoglycoside 4α in a 3 mM solution of 1:1 DMSO/buffer. Three buffers were used, 50 mM acetate buffer (pH 5), 50 mM phosphate buffer (pH 7), and 50 mM Tris buffer (pH 9). Neoglycoside degradation was monitored by reverse phase HPLC on an Agilent Zorbax Eclipse XDB-C8 column (4.6×150 mm) with a flow rate of 0.8 mL min^−1 and a linear gradient of 49% CH3OH/H2O to 89% CH3OH/H2O over 20 min. At t=0, neoglycoside 4α in 500 μL DMSO was added to 500 μL buffer, and the resulting solution was vortexed for 40 sec, then immediately injected onto the HPLC. Peak areas at 220 nm were used to estimate the neoglycoside/aglycon ratio, which is reported as “percent neoglycoside remaining” [Aneoglycoside/(Aneoglycoside+Aaglycon)] for each of the three buffer systems.
Hydrolytic Stability of 4α. The chemical stability of the neoglycosidic linkage was examined by monitoring the hydrolytic degradation of neoglycoside 4α in a 3 mM solution of 1:1 DMSO/buffer. Three buffers were used, 50 mM acetate buffer (pH 5), 50 mM phosphate buffer (pH 7), and 50 mM Tris buffer (pH 9). Neoglycoside degradation was monitored by reverse phase HPLC on an Agilent Zorbax Eclipse XDB-C8 column (4.6×150 mm) with a flow rate of 0.8 mL min^−1 and a linear gradient of 49% CH3OH/H2O to 89% CH3OH/H2O over 20 min. At t=0, neoglycoside 4α in 500 μL DMSO was added to 500 μL buffer, and the resulting solution was vortexed for 40 sec, then immediately injected onto the HPLC. Peak areas at 220 nm were used to estimate the neoglycoside/aglycon ratio, which is reported as “percent neoglycoside remaining” [Aneoglycoside/(Aneoglycoside+Aaglycon)] for each of the three buffer systems (see FIG. 4).
The chemical stability of the neoglycosidic linkage was examined by monitoring the hydrolytic degradation of neoglycoside 4α in a 3 mM solution of 1:1 DMSO/buffer using buffers at three different pHs.

As for `CON([C@H]1CC[C@@]2(C)[C@H](CC[C@@H]3[C@@H]2CC[C@]2(C)[C@@H](C4=CC(=O)OC4)CC[C@]32O)C1)[C@@H]1O[C@H](CO)[C@@H](O)[C@H](O)[C@@H]1O` [27β, D-mannoside], the hydrolytic stability entry is “no hydrolytic degradation”.
